Each structure is given as a SMILES string. Toxic doses and inconclusive results are not listed.

This note sets out measurements from PubChem BioAssay AID256 (DTP/NCI, 2004).

For the assay, the system named is CD2F1 mice, L1210 leukemia ip, survival T/C. As to the kind of experiment: NCI In Vivo Anticancer Drug Screen. Data for tumor model L1210 Leukemia (intraperitoneal) in CD2F1 (CDF1) mice. The settings on record: higher = longer survival. A digest of the protocol:
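Transplantable tumor in mice; compound-treated vs vehicle-treated groups. Read-out = treated/control ratio of the measured endpoint.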

The mark [1] stands for this setting: endpoint: mean survival time, dose: 100.0 mg/kg/injection, schedule: Q04DX002 (ip), vehicle: saline with Tween-80.
[2] abbreviates: endpoint: mean survival time, dose: 200.0 mg/kg/injection, schedule: Q04DX002 (ip), vehicle: saline with Tween-80.
The mark [3] stands for this setting: endpoint: mean survival time, dose: 100.0 mg/kg/injection, schedule: Q01DX009 (ip), vehicle: saline.
Where [4] appears, read: endpoint: mean survival time, dose: 100.0 mg/kg/injection, schedule: Q04DX003 (ip), vehicle: saline with Tween-80.
Setting [5] is: endpoint: mean survival time, dose: 200.0 mg/kg/injection, schedule: Q04DX003 (ip), vehicle: saline with Tween-80.
[6] abbreviates: endpoint: mean survival time, dose: 50.0 mg/kg/injection, schedule: Q01DX009 (ip), vehicle: saline with Tween-80.
The mark [7] stands for this setting: endpoint: mean survival time, dose: 100.0 mg/kg/injection, schedule: Q01DX009 (ip), vehicle: saline with Tween-80.
The mark [8] stands for this setting: endpoint: mean survival time, dose: 200.0 mg/kg/injection, schedule: Q01DX009 (ip), vehicle: saline with Tween-80.

Regarding `Cc1cc(Br)ccc1[NH-].Cc1cc(Br)ccc1[NH-].[Cl][Pt+2][Cl]`, the T/C is, setting by setting: (endpoint: mean survival time, dose: 8.8 mg/kg/injection, schedule: Q04DX003 (ip), vehicle: saline with Tween-80) 97 % of control; (endpoint: mean survival time, dose: 17.5 mg/kg/injection, schedule: Q04DX003 (ip), vehicle: saline with Tween-80) 97 % of control; (endpoint: mean survival time, dose: 35.0 mg/kg/injection, schedule: Q04DX003 (ip), vehicle: saline with Tween-80) 97 % of control; (endpoint: mean survival time, dose: 70.0 mg/kg/injection, schedule: Q04DX003 (ip), vehicle: saline with Tween-80) 109 % of control.

Consider `COc1cc(CC(=O)NO)cc(OC)c1OC`, for which the T/C by setting is: under setting [1], 88 % of control; under setting [2], 88 % of control.

Take `CC1=CCS(=O)(=O)C1`: the T/C is 111 % of control (endpoint: mean survival time, dose: 50.0 mg/kg/injection, schedule: Q01DX009 (ip), vehicle: saline) and 90 % of control under setting [3].

Consider `CC(=O)Nc1ccccc1C`, for which the T/C is, setting by setting: under setting [4], 97 % of control; under setting [5], 97 % of control; (endpoint: mean survival time, dose: 400.0 mg/kg/injection, schedule: Q04DX003 (ip), vehicle: saline with Tween-80) 99 % of control.

As to `Cc1cc(CCl)c(C)cc1CCl`, the T/C (endpoint: mean survival time, dose: 6.25 mg/kg/injection, schedule: Q04DX003 (ip), vehicle: saline with Tween-80) was 91 % of control; the T/C (endpoint: mean survival time, dose: 12.5 mg/kg/injection, schedule: Q04DX003 (ip), vehicle: saline with Tween-80) was 91 % of control; the T/C (endpoint: mean survival time, dose: 25.0 mg/kg/injection, schedule: Q04DX003 (ip), vehicle: saline with Tween-80) was 87 % of control; the T/C under setting [4] is 98 % of control.

Consider `CCCCOP(=O)(OC)OCCCC`, for which the T/C by setting is: under setting [1], 94 % of control; under setting [2], 102 % of control.

With `Clc1ccc2nc(C(Cl)(Cl)Cl)nc(NCCN3CCCCC3)c2c1`, the T/C under setting [6] is 89 % of control, the T/C under setting [7] is 113 % of control, the T/C under setting [8] is 97 % of control and the T/C under setting [5] is 91 % of control.

Consider `C=C(C)CNC1=C(C)C(=O)C2=C(C1=O)[C@@H](COC(N)=O)[C@]1(O)[C@H]3[C@@H](CN21)N3C` (stereo partly drawn), for which the T/C is 97 % of control (endpoint: mean survival time, dose: 1.5 mg/kg/injection, schedule: Q01DX001 (ip), vehicle: water); 97 % of control (endpoint: mean survival time, dose: 3.0 mg/kg/injection, schedule: Q01DX001 (ip), vehicle: water); 103 % of control (endpoint: mean survival time, dose: 6.0 mg/kg/injection, schedule: Q01DX001 (ip), vehicle: water); 98 % of control (endpoint: mean survival time, dose: 12.0 mg/kg/injection, schedule: Q01DX001 (ip), vehicle: water); 106 % of control (endpoint: mean survival time, dose: 24.0 mg/kg/injection, schedule: Q01DX001 (ip), vehicle: water); 156 % of control (endpoint: mean survival time, dose: 100.0 mg/kg/injection, schedule: Q01DX001 (ip), vehicle: distilled water + Tween-80).

On to `CC1=C(C(N)=O)C(c2ccccc2)NC(=S)N1` (stereo not drawn), for which the T/C is 101 % of control (endpoint: median survival time, dose: 25.0 mg/kg/injection, schedule: Q01DX009 (ip), vehicle: Klucel (hydroxypropylcellulose) (HPC)); 105 % of control (endpoint: median survival time, dose: 50.0 mg/kg/injection, schedule: Q01DX009 (ip), vehicle: Klucel (hydroxypropylcellulose) (HPC)); 102 % of control (endpoint: median survival time, dose: 100.0 mg/kg/injection, schedule: Q01DX009 (ip), vehicle: Klucel (hydroxypropylcellulose) (HPC)); 112 % of control (endpoint: median survival time, dose: 200.0 mg/kg/injection, schedule: Q01DX009 (ip), vehicle: Klucel (hydroxypropylcellulose) (HPC)); 103 % of control (endpoint: median survival time, dose: 400.0 mg/kg/injection, schedule: Q01DX009 (ip), vehicle: Klucel (hydroxypropylcellulose) (HPC)).

For `ClC1(Cl)C2COCOCC21` (stereo not drawn), the T/C reads like this: (endpoint: mean survival time, dose: 100.0 mg/kg/injection, schedule: Q01DX001 (ip), vehicle: saline with Tween-80) 91 % of control; (endpoint: mean survival time, dose: 200.0 mg/kg/injection, schedule: Q01DX001 (ip), vehicle: saline with Tween-80) 91 % of control; (endpoint: mean survival time, dose: 400.0 mg/kg/injection, schedule: Q01DX001 (ip), vehicle: saline with Tween-80) 95 % of control.

Turning to `C=Cc1c(C)c2cc3[nH]c(cc4nc(cc5nc(cc1[nH]2)C(C)=C5CCC(=O)O)C(CCC(=O)O)=C4C)c(C)c3C=C`, the T/C (endpoint: mean survival time, dose: 12.5 mg/kg/injection, schedule: Q01DX009 (ip), vehicle: saline with Tween-80) was 88 % of control; the T/C (endpoint: mean survival time, dose: 25.0 mg/kg/injection, schedule: Q01DX009 (ip), vehicle: saline with Tween-80) was 88 % of control; the T/C under setting [6] is 88 % of control.

For `CN(C)OC(=O)Nc1ccc([N+](=O)[O-])cc1`, the T/C reads like this: under setting [1], 97 % of control; under setting [2], 112 % of control; (endpoint: mean survival time, dose: 400.0 mg/kg/injection, schedule: Q04DX002 (ip), vehicle: saline with Tween-80) 108 % of control.

Turning to `N#CC12CC3CC(CC(C3)C1)C2`, the T/C runs as follows: (endpoint: mean survival time, dose: 5.0 mg/kg/injection, schedule: Q04DX003 (ip), vehicle: saline with Tween-80) 104 % of control; (endpoint: mean survival time, dose: 10.0 mg/kg/injection, schedule: Q04DX003 (ip), vehicle: saline with Tween-80) 104 % of control; (endpoint: mean survival time, dose: 20.0 mg/kg/injection, schedule: Q04DX003 (ip), vehicle: saline with Tween-80) 100 % of control.

Regarding `O=c1oc(-c2ccc([N+](=O)[O-])cc2)nc2cc(Cl)ccc12`, the T/C by setting is: under setting [6], 97 % of control; under setting [7], 108 % of control; under setting [8], 103 % of control.

Regarding `Nc1ccn(C2CC3OCC3O2)c(=O)n1` (stereo not drawn), the T/C (endpoint: median survival time, dose: 12.5 mg/kg/injection, schedule: Q01DX005 (ip), vehicle: saline) was 97 % of control; the T/C (endpoint: median survival time, dose: 25.0 mg/kg/injection, schedule: Q01DX005 (ip), vehicle: saline) was 105 % of control; the T/C (endpoint: median survival time, dose: 50.0 mg/kg/injection, schedule: Q01DX005 (ip), vehicle: saline) was 103 % of control; the T/C (endpoint: median survival time, dose: 100.0 mg/kg/injection, schedule: Q01DX005 (ip), vehicle: saline) is 110 % of control; the T/C (endpoint: median survival time, dose: 200.0 mg/kg/injection, schedule: Q01DX005 (ip), vehicle: saline) is 104 % of control.

Take `CCCCCCCCCCSCC`: the T/C reads like this: under setting [3], 101 % of control; (endpoint: mean survival time, dose: 100.0 mg/kg/injection, schedule: Q04DX003 (ip), vehicle: saline) 103 % of control; (endpoint: mean survival time, dose: 200.0 mg/kg/injection, schedule: Q01DX009 (ip), vehicle: saline) 104 % of control; (endpoint: mean survival time, dose: 200.0 mg/kg/injection, schedule: Q04DX003 (ip), vehicle: saline) 103 % of control; (endpoint: mean survival time, dose: 400.0 mg/kg/injection, schedule: Q01DX009 (ip), vehicle: saline) 101 % of control; (endpoint: mean survival time, dose: 400.0 mg/kg/injection, schedule: Q04DX003 (ip), vehicle: saline) 103 % of control.
